Values after ≈ are worked out from the molar mass of the structure shown.
Columns and labels:
[1] = test system: strains of Staphylococci and Enterococci with reduced susceptibility to vancomycin; experiment: Growth inhibition, summary of MIC testing; assay type: cell-based; conditions: summary in words
Method: (§1) In example experiments miconazole nitrate, was dissolved in methanol and econazole nitrate and clotrimazole were dissolved in DMSO and methanol respectively. Other solvents that may be used include caster oil, pyridine, DMSO and 0.9% saline. For IV administration agents may be solubilised in polyethoxylated caster oil, or cyclodextrins such as sulfobutylether7-βcyclodextrin or hydroxypropyl-β-cyclodextrin and lactic acid. Minimum inhibitory concentrations (MICs) of a range of clinical and control bacterial organisms were measured according to BSAC (British Society for Antimicrobial Chemotherapy) guidelines, described briefly as follows;
(§2) Stock solutions were prepared at concentrations of 1000 mg/L and 100 mg/L. The appropriate amounts of each stock solution were added to separate Petri dishes give the following final concentrations (after the addition of 20 mL molten agar): 128, 64, 32, 16, 8, 4, 2, 1, 0.5, 0.25, 0.12, 0.06, 0.03, 0.015 mg/L.
(§3) The test organisms were grown overnight in 5 mL IST broth. Using a dilution in 0.9% saline of 1:500 for Gram-negative organisms and 1:100 for Gram-positive organisms, the appropriate agar plates were inoculated using a multipoint inoculator.
(§4) Plates were incubated at 37° C. in air for 18-20 hours.
(§5) The MIC is the minimum amount of an antibiotic at which there is no visible growth of bacteria. Tiny single colonies or faint hazes were not counted as growth.

[2] = test system: Enterococcus faecium (VRE) E15 VanA ATCC 4147; experiment: MIC, agar dilution (BSAC guidelines); assay type: cell-based; conditions: Table 2, E. faecium (VRE) E15 VanA ATCC 4147, read-out: Minimum inhibitory concentration (MIC)
Method: as §1
(§6) Preparation of Agar Plates and Broths
(§7) Stock solutions of each agent were prepared using the formula:
(§8) Where P=μg of active compound per mg (μg/mg) • V=volume required (mL) • C=final concentration of solution (mg/L) • W=weight of agent (mg) to be dissolved in volume V (mL)
as §2
(§9) Volumes (20 mL) of cooled molten IST agar (oxoid) was added to each Petri dish and mixed by swirling.
(§10) After drying, the plates were stored at 4° C. and protected from light. Plates were used on the day of preparation.
as §3, §4, §5

[3] = test system: VISA, strain USA/VISA 5827; experiment: MIC, agar dilution (BSAC guidelines); assay type: cell-based; conditions: Staphylococcus aureus, Table 2, read-out: Minimum inhibitory concentration (MIC)
Method: as §1, §6, §7, §8, §2, §9, §10, §3, §4, §5

[4] = test system: VISA, strain VISA 3900 UK; experiment: MIC, agar dilution (BSAC guidelines); assay type: cell-based; conditions: Staphylococcus aureus, Table 2, read-out: Minimum inhibitory concentration (MIC)
Method: as §1, §6, §7, §8, §2, §9, §10, §3, §4, §5

[5] = test system: Enterococcus faecium (VRE) E19 UAA/522 VanB; experiment: MIC, agar dilution (BSAC guidelines); assay type: cell-based; conditions: Table 2, E. faecium (VRE) E19 UAA/522 VanB, read-out: Minimum inhibitory concentration (MIC)
Method: as §1, §6, §7, §8, §2, §9, §10, §3, §4, §5

[6] = test system: Enterococcus faecalis (VRE) E8 VanA; experiment: MIC, agar dilution (BSAC guidelines); assay type: cell-based; conditions: Table 2, E. faecalis (VRE) E8 VanA, read-out: Minimum inhibitory concentration (MIC)
Method: as §1, §6, §7, §8, §2, §9, §10, §3, §4, §5

[7] = test system: Escherichia coli NCTC 10418; experiment: MIC, agar dilution (BSAC guidelines); assay type: cell-based; conditions: NCTC10418, Table 2, E. coli NCTC 10418, read-out: Minimum inhibitory concentration (MIC)
Method: as §1, §6, §7, §8, §2, §9, §10, §3, §4, §5

[8] = test system: Staphylococcus epidermidis ATCC 1228; experiment: MIC, agar dilution (BSAC guidelines); assay type: cell-based; conditions: ATCC1228, Table 2, S. epidermidis ATCC 1228, read-out: Minimum inhibitory concentration (MIC)
Method: as §1, §6, §7, §8, §2, §9, §10, §3, §4, §5

[9] = test system: VISA, strain USA/VISA 5836; experiment: MIC, agar dilution (BSAC guidelines); assay type: cell-based; conditions: Staphylococcus aureus, Table 2, read-out: Minimum inhibitory concentration (MIC)
Method: as §1, §6, §7, §8, §2, §9, §10, §3, §4, §5

[10] = test system: Enterococcus faecium (VRE) NCTC 7171; experiment: MIC, agar dilution (BSAC guidelines); assay type: cell-based; conditions: Table 2, E. faecium (VRE) NCTC 7171, read-out: Minimum inhibitory concentration (MIC)
Method: as §1, §6, §7, §8, §2, §9, §10, §3, §4, §5

[11] = test system: Enterococcus faecium (VRE) VanR B145344C LFE; experiment: MIC, agar dilution (BSAC guidelines); assay type: cell-based; conditions: Table 2, E. faecium (VRE) VanR B145344C LFE, read-out: Minimum inhibitory concentration (MIC)
Method: as §1, §6, §7, §8, §2, §9, §10, §3, §4, §5

[12] = test system: Pseudomonas aeruginosa NCTC 10662; experiment: MIC, agar dilution (BSAC guidelines); assay type: cell-based; conditions: NCTC10662, Table 2, P. aeruginosa NCTC 10662, read-out: Minimum inhibitory concentration (MIC)
Method: as §1, §6, §7, §8, §2, §9, §10, §3, §4, §5

[13] = in vivo; cited from earlier work

| MIC [2] [µg/mL] | MIC [3] [µg/mL] | MIC [4] [µg/mL] | MIC [5] [µg/mL] | MIC [6] [µg/mL] | MIC [7] [µg/mL] | MIC [8] [µg/mL] | MIC [9] [µg/mL] | MIC [10] [µg/mL] | MIC [11] [µg/mL] | MIC [12] [µg/mL] | Compound | activity against strains of Staphylococci and Enterococci with reduced susceptibility to vancomycin [1] | systemic absorption [13] | topical dose recovered in the urine or faeces [13] |
| --- | --- | --- | --- | --- | --- | --- | --- | --- | --- | --- | --- | --- | --- | --- |
| > 128 | > 128 | > 128 | > 128 | > 128 | > 128 | > 128 | > 128 | > 128 | > 128 | > 128 | c1ccc(-c2ccc(C(c3ccccc3)n3ccnc3)cc2)cc1 (centres unmarked) [Bifonazole] | did not show this activity |  |  |
| > 128 | > 128 | > 128 | > 128 | > 128 | > 128 | > 128 | > 128 | > 128 | > 128 | > 128 | OC(Cn1cncn1)(Cn1cncn1)c1ccc(F)cc1F [Fluconazole] | did not show this activity |  |  |
| 16 (≈ 30.1 µM) | 64 (≈ 120 µM) | 64 (≈ 120 µM) | 128 (≈ 241 µM) | > 256 | > 256 | 64 (≈ 120 µM) | 64 (≈ 120 µM) | 128 (≈ 241 µM) | 128 (≈ 241 µM) | > 256 | CC(=O)N1CCN(c2ccc(OCC3COC(Cn4ccnc4)(c4ccc(Cl)cc4Cl)O3)cc2)CC1 (centres unmarked) [Ketoconazole] | did not show this activity |  |  |
|  |  |  |  |  |  |  |  |  |  |  | Clc1ccc(COC(Cn2ccnc2)c2ccc(Cl)cc2Cl)cc1 (centres unmarked) [econazole nitrate] |  | extremely low | Less than 1% |
